In ChEMBL document CHEMBL1201862, “PubChem BioAssay data set” (2004):
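Five concentrations, 48 hours, 96-well plates. The concentration for 50% growth inhibition is given as GI50.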 Activity calls are given as the source filed them. Cut-off read from the data, not from the text of the source: active = GI50 up to about 1.1 µM and inactive = higher.

Key:
Experiment in all cases: NCI tumour cell line growth inhibition, 48 h
CAKI-1 = tested on: CAKI-1
CCRF-CEM = tested on: CCRF-CEM
HOP-62 = tested on: HOP-62
HOP-92 = tested on: HOP-92
IGROV-1 = tested on: IGROV-1
K562 = tested on: K562
KM12 = tested on: KM12
M14 = tested on: M14
MCF7 = tested on: MCF7
MDA-N = tested on: MDA-N
NCI/ADR-RES = tested on: NCI/ADR-RES
OVCAR-3 = tested on: OVCAR-3
OVCAR-4 = tested on: OVCAR-4
PC-3 = tested on: PC-3
SF-295 = tested on: SF-295
SK-MEL-28 = tested on: SK-MEL-28
TK-10 = tested on: TK-10
U-251 = tested on: U-251
UO-31 = tested on: UO-31

| SMILES | GI50 (CAKI-1) | GI50 (CCRF-CEM) | GI50 (HOP-62) | GI50 (HOP-92) | GI50 (IGROV-1) | GI50 (K562) | GI50 (KM12) | GI50 (M14) | GI50 (MCF7) | GI50 (MDA-N) | GI50 (NCI/ADR-RES) | GI50 (OVCAR-3) | GI50 (OVCAR-4) | GI50 (PC-3) | GI50 (SF-295) | GI50 (SK-MEL-28) | GI50 (TK-10) | GI50 (U-251) | GI50 (UO-31) |
| --- | --- | --- | --- | --- | --- | --- | --- | --- | --- | --- | --- | --- | --- | --- | --- | --- | --- | --- | --- |
| CCCCCCCCC/C=C1/CC(CO)(COC(=O)CC(C(C)C)C(C)C)OC1=O (configuration not stated) | 4.18 µM (inactive) | 5.35 µM (inactive) | 1.12 µM (inactive) | 1.28 µM (inactive) | 15.4 µM (inactive) | 0.36 µM (active) | 8.85 µM (inactive) | 2.39 µM (inactive) | 9.23 µM (inactive) | 0.21 µM (active) | 14.1 µM (inactive) | 13.9 µM (inactive) | 14.7 µM (inactive) | 6.75 µM (inactive) | 0.675 µM (active) | 14.4 µM (inactive) | 2.89 µM (inactive) | 11.9 µM (inactive) | 2.44 µM (inactive) |
| C/C=C1/CN2CCC34c5ccccc5N5C(=O)C(C6CC78c9ccccc9N9C(=O)C=CC(C%10CC7N6C/C%10=C/C)C98)=CC(C1CC23)C54 (configuration not stated) | 8.71 µM (inactive) | 0.501 µM (active) | 8.59 µM (inactive) | 6.32 µM (inactive) | 4.43 µM (inactive) | 1.62 µM (inactive) | 9.55 µM (inactive) | 5.52 µM (inactive) | 2.13 µM (inactive) | 5.47 µM (inactive) | 8.34 µM (inactive) | 5.6 µM (inactive) | 7.01 µM (inactive) | 2.1 µM (inactive) | 9.2 µM (inactive) | 5.41 µM (inactive) | 7.52 µM (inactive) | 5.92 µM (inactive) | 2.84 µM (inactive) |
| CS(=O)(=O)N1CC(CCl)c2ccc(NCCN)cc21 (configuration not stated) | 96.2 µM (inactive) | 79.8 µM (inactive) | 14.8 µM (inactive) | 26.3 µM (inactive) | 12.5 µM (inactive) | > 100 µM (inactive) | > 100 µM (inactive) | > 100 µM (inactive) | > 100 µM (inactive) | > 100 µM (inactive) | > 100 µM (inactive) | > 100 µM (inactive) | 58.9 µM (inactive) | > 100 µM (inactive) | – | > 100 µM (inactive) | > 100 µM (inactive) | 27.7 µM (inactive) | > 100 µM (inactive) |
| CC(=O)/C=C1/C(=O)C(CC(C)C)=C1CC(C)C | > 100 µM (inactive) | 53.8 µM (inactive) | > 100 µM (inactive) | > 100 µM (inactive) | > 100 µM (inactive) | – | > 100 µM (inactive) | > 100 µM (inactive) | > 100 µM (inactive) | > 100 µM (inactive) | > 100 µM (inactive) | – | > 100 µM (inactive) | > 100 µM (inactive) | > 100 µM (inactive) | > 100 µM (inactive) | > 100 µM (inactive) | > 100 µM (inactive) | > 100 µM (inactive) |
| CCCNC(=O)c1cc(OC)c(OC)cc1NC(=O)C12CC3CC(CC(C3)C1)C2 | 19.8 µM (inactive) | 28.2 µM (inactive) | 19.7 µM (inactive) | 18.3 µM (inactive) | 22.9 µM (inactive) | 31.9 µM (inactive) | 17.6 µM (inactive) | 15.2 µM (inactive) | 22.2 µM (inactive) | 16.7 µM (inactive) | 19 µM (inactive) | 19 µM (inactive) | 17.6 µM (inactive) | 17.3 µM (inactive) | 18.7 µM (inactive) | 16.1 µM (inactive) | 16.6 µM (inactive) | 17 µM (inactive) | 16.6 µM (inactive) |
| CC(=O)Oc1ccc(N2C(=O)C3c4[nH]c5ccccc5c4C4CCC(C(C)(C)C)CC4C3C2=O)cc1 (configuration not stated) | 5.31 µM (inactive) | 10 µM (inactive) | 3.79 µM (inactive) | 3.03 µM (inactive) | 5.97 µM (inactive) | 3.26 µM (inactive) | – | 4.01 µM (inactive) | 2.88 µM (inactive) | 4.67 µM (inactive) | 3.56 µM (inactive) | 2.69 µM (inactive) | – | 2.79 µM (inactive) | 4.37 µM (inactive) | 3.76 µM (inactive) | 3.33 µM (inactive) | 3.27 µM (inactive) | 5.35 µM (inactive) |
| C=C1C(=O)OC2C1C(OC(=O)/C(C)=C/C)CC(O)(CCl)C1C(O)C3OC3(C)C21O (configuration not stated) | 13.2 µM (inactive) | 12.4 µM (inactive) | > 50 µM (inactive) | 24.9 µM (inactive) | > 50 µM (inactive) | 18 µM (inactive) | > 50 µM (inactive) | 23.3 µM (inactive) | 18.2 µM (inactive) | 26.6 µM (inactive) | > 50 µM (inactive) | 27.5 µM (inactive) | > 50 µM (inactive) | > 50 µM (inactive) | > 50 µM (inactive) | > 50 µM (inactive) | 40.1 µM (inactive) | > 50 µM (inactive) | – |
| C[C@@H]1CC[C@@]2(OC1)O[C@H]1C[C@H]3[C@@H]4CC[C@H]5C[C@@H](OC6OC(CO)C(OC7OC(CO)C(O)C(OC8OCC(O)C(O)C8O)C7OC7OC(CO)C(O)C(O)C7O)C(O)C6O)[C@H](O)C[C@]5(C)[C@H]4CC[C@]3(C)[C@H]1[C@@H]2C (some centres not stated) | 2.21 µM (inactive) | 0.693 µM (active) | 1.42 µM (inactive) | 23.6 µM (inactive) | 2.16 µM (inactive) | 2.11 µM (inactive) | 8 µM (inactive) | 15.2 µM (inactive) | 0.804 µM (active) | 10.8 µM (inactive) | 2.52 µM (inactive) | 2.88 µM (inactive) | 1.95 µM (inactive) | 3.15 µM (inactive) | 3.89 µM (inactive) | 15.4 µM (inactive) | 4.36 µM (inactive) | 3.13 µM (inactive) | 4.52 µM (inactive) |
| CC(=O)OCC1OC(On2ccccc2=S)C(OC(C)=O)C(OC(C)=O)C1OC(C)=O (configuration not stated) | > 100 µM (inactive) | 0.785 µM (active) | > 100 µM (inactive) | > 100 µM (inactive) | > 100 µM (inactive) | > 100 µM (inactive) | > 100 µM (inactive) | > 100 µM (inactive) | > 100 µM (inactive) | > 100 µM (inactive) | > 100 µM (inactive) | > 100 µM (inactive) | > 100 µM (inactive) | 69.2 µM (inactive) | > 100 µM (inactive) | > 100 µM (inactive) | > 100 µM (inactive) | > 100 µM (inactive) | > 100 µM (inactive) |
| O=C(Nc1nc(C23CC4CC(CC(C4)C2)C3)cs1)c1cc2ccccc2oc1=O | > 100 µM (inactive) | > 100 µM (inactive) | > 100 µM (inactive) | > 100 µM (inactive) | > 100 µM (inactive) | > 100 µM (inactive) | > 100 µM (inactive) | – | > 100 µM (inactive) | > 100 µM (inactive) | > 100 µM (inactive) | > 100 µM (inactive) | > 100 µM (inactive) | > 100 µM (inactive) | > 100 µM (inactive) | > 100 µM (inactive) | > 100 µM (inactive) | > 100 µM (inactive) | > 100 µM (inactive) |
| NC(=O)/C=C/NC(=O)/C=N\O | > 100 µM (inactive) | > 100 µM (inactive) | > 100 µM (inactive) | > 100 µM (inactive) | > 100 µM (inactive) | > 100 µM (inactive) | > 100 µM (inactive) | > 100 µM (inactive) | > 100 µM (inactive) | > 100 µM (inactive) | > 100 µM (inactive) | > 100 µM (inactive) | > 100 µM (inactive) | > 100 µM (inactive) | > 100 µM (inactive) | > 100 µM (inactive) | – | > 100 µM (inactive) | > 100 µM (inactive) |
| COC1(OC)CC(CO)(CNc2cc(Cl)nc(N)n2)C1 | > 100 µM (inactive) | > 100 µM (inactive) | > 100 µM (inactive) | > 10 µM (inactive) | > 100 µM (inactive) | > 100 µM (inactive) | > 100 µM (inactive) | – | > 100 µM (inactive) | > 100 µM (inactive) | > 100 µM (inactive) | > 100 µM (inactive) | > 100 µM (inactive) | > 100 µM (inactive) | > 100 µM (inactive) | > 100 µM (inactive) | > 100 µM (inactive) | > 100 µM (inactive) | > 100 µM (inactive) |
| C/C(Cl)=N\OC(=O)Nc1ccc([N+](=O)[O-])cc1 | 5.21 µM (inactive) | 2.77 µM (inactive) | > 100 µM (inactive) | 2.59 µM (inactive) | 17.5 µM (inactive) | 2.02 µM (inactive) | 15.5 µM (inactive) | 12.9 µM (inactive) | 3.08 µM (inactive) | 10.8 µM (inactive) | 17.6 µM (inactive) | 2.12 µM (inactive) | 13.7 µM (inactive) | 16.2 µM (inactive) | 16.8 µM (inactive) | 17.2 µM (inactive) | 14.7 µM (inactive) | 17.6 µM (inactive) | 5.6 µM (inactive) |
| CSc1cc(Cl)c(C)cc1S(=O)(=O)NC(=O)Nc1ccc(Cl)cc1 | 41.6 µM (inactive) | 12.6 µM (inactive) | 24.6 µM (inactive) | 24.4 µM (inactive) | 39.6 µM (inactive) | 29.9 µM (inactive) | 24.1 µM (inactive) | 39.9 µM (inactive) | 30.3 µM (inactive) | 33.5 µM (inactive) | 25.6 µM (inactive) | 28 µM (inactive) | 40.1 µM (inactive) | 19.9 µM (inactive) | 29.6 µM (inactive) | 46.1 µM (inactive) | 28.5 µM (inactive) | 36.6 µM (inactive) | 17 µM (inactive) |
